Data: patent US20140155406A1, “4-IMIDAZOPYRIDAZIN-1-YL-BENZAMIDES AND 4-IMIDAZOTRIAZIN-1-YL-BENZAMIDES BTK INHIBITORS” (priority 2011, published 2014)

What was measured:
FynT enzyme = target: T1, FynT enzyme (Homo sapiens, UniProt P06241); experiment: FynT enzyme activity, IMAP fluorescence polarization assay; format: biochemical; settings: 60 min pre-incubation, 0.2 μM ATP (Km)
T1 construct: purchased Biomol SE-287
Procedure: FynT enzyme activity is measured using the IMAP (immobilized metal ion affinity-based fluorescence polarization) assay as outlined below.
FynT enzyme (Biomol catalog# SE-287), is diluted to 0.5 μg/mL in KR buffer (10 mM Tris-HCl, 10 mM MgCl2, 0.01% Tween-20, 0.05% NaN3, 1 mM DTT, 2 mM MnCl2, pH 7.2). Serial dilution log 10 from 2 mM to 63.2 nM of test compounds are made in 100% DMSO. The dilutions in DMSO are then diluted 50-fold in KR-buffer of which 5 μl is used in the assay, leading to a final compound concentration range in the assay from 10 μM to 0.316 nM. 5 μL/well of test compound in KR buffer (final DMSO concentration in the assay is 1%) is mixed with 5 μl/well of 0.5 μg/mL FynT enzyme (final concentration in the assay is 125 ng/mL). Test compounds and FynT enzyme are pre-incubated 60 minutes at room temperature, before adding 5 μL/well of 400 nM Fluorescin labeled substrate peptide (p34cdc2 substrate peptide, e.g. #R7157/#R7172, Molecular Devices) in KR-buffer. Final peptide substrate concentration in assay is 100 nM. The kinase assay is started by adding 5 μL/well of 0.8 μM ATP in KR-buffer (final ATP concentration is 0.2 μM ATP, Km ATP in FynT IMAP assay). Following incubation for 2 h at room temperature the enzyme reaction is stopped by adding 40 μL/well IMAP Progressive Binding Solution (according to suppliers (Molecular Devices) protocol using 75% 1× buffer A and 25% 1× buffer B with 1:600 Progressive Binding Solution). After 60 min incubation at room temperature in the dark the FP signal is read. Fluorescence at 535 nm is measured using parallel and perpendicular filters to determine differences in rotation due to binding of the phosphorylated substrate peptide to the beads. Values are calculated as percentage of the difference in readout (ΔmPi) of the controls with and without ATP. EC50 values are determined by curve fitting of the experimental results using Activity Base.

Btk enzyme (His-Btk) = target: T2, Btk enzyme (His-Btk) (Homo sapiens, UniProt Q06187); experiment: Btk enzyme activity, IMAP fluorescence polarization assay; format: biochemical; settings: 60 min pre-incubation, 5 μM ATP (Km)
T2 construct: His; purchased Millipore 14-552
Text: Inhibition of kinase activity can be measured using the Immobilized Metal Assay for Phosphochemicals (IMAP) assay. IMAP is a homogeneous fluorescence polarization (FP) assay based on affinity capture of phosphorylated peptide substrates. IMAP uses fluorescein-labeled peptide substrates that, upon phosphorylation by a protein kinase, bind to so-called IMAP nanoparticles, which are derivatized with trivalent metal complexes. Binding causes a change in the rate of the molecular motion of the peptide, and results in an increase in the FP value observed for the fluorescein label attached to the substrate peptide (Gaudet et al. A homogeneous fluorescence polarization assay adaptable for a range of protein serine/threonine and tyrosine kinases. J. Biomol. Screen (2003) 8, 164-175).
Btk enzyme activity is measured using the IMAP (immobilized metal ion affinity-based fluorescence polarization) assay as outlined below.
Btk enzyme (His-Btk (Millipore catalog#14-552), is diluted to 0.4 U/mL in KR buffer (10 mM Tris-HCl, 10 mM MgCl2, 0.01% Tween-20, 0.05% NaN3, 1 mM DTT, 2 mM MnCl2, pH 7.2).
Serial dilution log 10 from 2 mM to 63.2 nM of test compounds are made in 100% DMSO. The dilutions in DMSO are then diluted 50-fold in KR-buffer. Final compound concentration range in the assay from 10 μM to 0.316 nM.
5 μL/well of test compound in KR buffer (final DMSO concentration in the assay is 1%) is mixed with 5 μl/well of 0.4 U/mL Btk enzyme (final concentration in the assay is 0.1 U/mL). Test compounds and Btk enzyme are pre-incubated 60 minutes at room temperature, before adding 5 μL/well of 200 nM Fluorescin labeled substrate peptide (Blk/Lyntide substrate, e.g. #R7188/#R7233, Molecular Devices) in KR-buffer. Final peptide substrate concentration in assay is 50 nM. The kinase assay is started by adding 5 μL/well of 20 μM ATP in KR-buffer (final ATP concentration is 5 μM ATP, Km ATP in Btk IMAP assay). Following incubation for 2 h at room temperature the enzyme reaction is stopped by adding 40 μL/well IMAP Progressive Binding Solution (according to suppliers (Molecular Devices) protocol using 75% 1× buffer A and 25% 1× buffer B with 1:600 Progressive Binding Solution). After 60 min incubation at room temperature in the dark the FP signal is read. Fluorescence at 535 nm is measured using parallel and perpendicular filters to determine differences in rotation due to binding of the phosphorylated substrate peptide to the beads. Values are calculated as percentage of the difference in readout (ΔmPi) of the controls with and without ATP. EC50 values are determined by curve fitting of the experimental results using Activity Base.

T2 sequence (Q06187 whole entry): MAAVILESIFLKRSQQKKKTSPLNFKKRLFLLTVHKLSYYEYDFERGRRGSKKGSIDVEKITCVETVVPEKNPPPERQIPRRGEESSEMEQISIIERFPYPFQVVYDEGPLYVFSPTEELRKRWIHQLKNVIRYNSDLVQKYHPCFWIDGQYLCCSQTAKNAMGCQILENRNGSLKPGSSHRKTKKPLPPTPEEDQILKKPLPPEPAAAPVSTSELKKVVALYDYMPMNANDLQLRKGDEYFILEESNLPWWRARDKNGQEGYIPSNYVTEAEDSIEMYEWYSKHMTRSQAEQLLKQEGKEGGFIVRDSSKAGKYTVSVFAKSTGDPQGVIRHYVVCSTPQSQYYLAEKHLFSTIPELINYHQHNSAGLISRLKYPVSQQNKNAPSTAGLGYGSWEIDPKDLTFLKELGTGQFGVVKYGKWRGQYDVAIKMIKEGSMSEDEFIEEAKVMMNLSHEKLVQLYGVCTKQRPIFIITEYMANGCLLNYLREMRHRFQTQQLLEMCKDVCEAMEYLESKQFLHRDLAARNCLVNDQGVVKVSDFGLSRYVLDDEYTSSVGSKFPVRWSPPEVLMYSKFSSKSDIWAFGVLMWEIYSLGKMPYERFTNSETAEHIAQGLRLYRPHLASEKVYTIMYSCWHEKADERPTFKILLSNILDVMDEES
T1 sequence (P06241 1-534 isoform P06241-2): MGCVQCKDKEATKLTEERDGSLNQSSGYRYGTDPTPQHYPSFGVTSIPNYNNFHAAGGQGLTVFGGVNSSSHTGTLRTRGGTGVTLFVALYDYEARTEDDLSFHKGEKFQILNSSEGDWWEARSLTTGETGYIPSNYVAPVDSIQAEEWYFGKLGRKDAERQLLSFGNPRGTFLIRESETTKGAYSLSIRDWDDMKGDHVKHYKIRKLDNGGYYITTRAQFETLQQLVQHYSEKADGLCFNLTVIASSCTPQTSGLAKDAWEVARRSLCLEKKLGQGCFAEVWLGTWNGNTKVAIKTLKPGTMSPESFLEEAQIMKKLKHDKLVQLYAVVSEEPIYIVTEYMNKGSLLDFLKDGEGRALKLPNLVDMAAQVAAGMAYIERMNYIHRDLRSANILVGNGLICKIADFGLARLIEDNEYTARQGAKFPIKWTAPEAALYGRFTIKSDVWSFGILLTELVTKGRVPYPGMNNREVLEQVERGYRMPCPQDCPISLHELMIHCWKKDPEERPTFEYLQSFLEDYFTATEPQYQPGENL

Structure (SMILES) | EC50 (FynT enzyme) [µM] | EC50 (Btk enzyme (His-Btk); bin bounds given in nM) [nM] | EC50 (Btk enzyme (His-Btk); bounds given in μM) [nM]
C=CC(=O)N1CCC[C@H]1c1nc(-c2ccc(C(=O)Nc3cc(CCC)ccn3)cc2)c2c(C)nccn12 [Example 9, (S)-4-(3-(1-Acryloylpyrrolidin-2-yl)-8-methylimidazo[1,5-a]pyrazin-1-yl)-N-(4-propylpyridin-2-yl)benzamide] | ≥ 1 | < 10 | –
C=CS(=O)(=O)N1CCCC[C@H]1c1nc(-c2ccc(C(=O)Nc3cc(CCC)ccn3)cc2)c2c(C)nccn12 [Example 4, (S)-4-(8-Methyl-3-(1-(vinylsulfonyl)piperidin-2-yl)imidazo[1,5-a]pyrazin-1-yl)-N-(4-propylpyridin-2-yl)benzamide] | ≥ 1 | < 10 | –
C=CC(=O)N1CCCC[C@H]1c1nc(-c2ccc(C(=O)Nc3cc(C(F)(F)F)ccn3)cc2)c2c(C)nccn12 [Example 27, (S)-4-(3-(1-acryloylpiperidin-2-yl)-8-methylimidazo[1,5-a]pyrazin-1-yl)-N-(4-(trifluoromethyl)pyridin-2-yl)benzamide] | ≥ 1 | < 10 | –
C=CC(=O)N1CCCC[C@H]1c1nc(-c2ccc(C(=O)Nc3cc(CCC)ccn3)cc2)c2c(C)nccn12 [Example 2, (S)-4-(3-(1-Acryloylpiperidin-2-yl)-8-methylimidazo[1,5-a]pyrazin-1-yl)-N-(4-propylpyridin-2-yl)benzamide] | ≥ 1 | < 10 | –
Cc1nccn2c([C@@H]3CCCCN3C(=O)/C=C/CN(C)C)nc(-c3ccc(C(=O)Nc4cc(C(F)(F)F)ccn4)cc3)c12 [Example 37, (S,E)-4-(3-(1-(4-(dimethylamino)but-2-enoyl)piperidin-2-yl)-8-methylimidazo[1,5-a]pyrazin-1-yl)-N-(4-(trifluoromethyl)pyridin-2-yl)benzamide] | ≥ 1 | < 10 | –
CCCc1ccnc(NC(=O)c2ccc(-c3nc([C@@H]4CCCCN4C(=O)/C=C/CN4CCCC4)n4ccnc(C)c34)cc2)c1 [Example 35, (S,E)-4-(8-methyl-3-(1-(4-(pyrrolidin-1-yl)but-2-enoyl)piperidin-2-yl)imidazo[1,5-a]pyrazin-1-yl)-N-(4-propylpyridin-2-yl)benzamide] | ≥ 1 | < 10 | –
CC#CC(=O)N1CCCC[C@H]1c1nc(-c2ccc(C(=O)Nc3cc(CCC)ccn3)cc2)c2c(C)nccn12 [Example 22, (S)-4-(3-(1-but-2-ynoylpiperidin-2-yl)-8-methylimidazo[1,5-a]pyrazin-1-yl)-N-(4-propylpyridin-2-yl)benzamide] | ≥ 1 | < 10 | –
C=CC(=O)N1CCC[C@H]1c1nc(-c2ccc(C(=O)Nc3ccccn3)cc2)c2c(C)nccn12 [Example 19, (S)-4-(3-(1-acryloylpyrrolidin-2-yl)-8-methylimidazo[1,5-a]pyrazin-1-yl)-N-(pyridin-2-yl)benzamide] | ≥ 1 | < 10 | –
C=CC(=O)N[C@@H](C)c1nc(-c2ccc(C(=O)Nc3cc(CCC)ccn3)cc2)c2c(C)nccn12 [Example 23, (S)-4-(3-(1-acrylamidoethyl)-8-methylimidazo[1,5-a]pyrazin-1-yl)-N-(4-propylpyridin-2-yl)benzamide] | ≥ 1 | < 10 | –
CC#CC(=O)N(C)[C@@H](C)c1nc(-c2ccc(C(=O)Nc3cc(CCC)ccn3)cc2)c2c(C)nccn12 [Example 24, (S)-4-(8-methyl-3-(1-(N-methylbut-2-ynamido)ethyl)imidazo[1,5-a]pyrazin-1-yl)-N-(4-propylpyridin-2-yl)benzamide] | ≥ 1 | < 10 | –
CCCc1ccnc(NC(=O)c2ccc(-c3nc([C@H](C)NC(=O)/C=C/COC)n4ccnc(C)c34)cc2)c1 [Example 36, (S,E)-4-(3-(1-(4-methoxybut-2-enamido)ethyl)-8-methylimidazo[1,5-a]pyrazin-1-yl)-N-(4-propylpyridin-2-yl)benzamide] | ≥ 1 | < 10 | –
Cc1nccn2c([C@@H]3CCCN3C(=O)/C=C/CN3CCCC3)nc(-c3ccc(C(=O)Nc4ccccn4)cc3)c12 [Example 25, (S,E)-4-(8-methyl-3-(1-(4-(pyrrolidin-1-yl)but-2-enoyl)pyrrolidin-2-yl)imidazo[1,5-a]pyrazin-1-yl)-N-(pyridin-2-yl)benzamide] | ≥ 1 | ≥ 100 | < 1000
CCCc1ccnc(NC(=O)c2ccc(-c3nc([C@H](C)NC(=O)/C=C/CN(C)C)n4ccnc(C)c34)cc2)c1 [Example 28, (S,E)-4-(3-(1-(4-(dimethylamino)but-2-enamido)ethyl)-8-methylimidazo[1,5-a]pyrazin-1-yl)-N-(4-propylpyridin-2-yl)benzamide] | ≥ 1 | < 10 | –
CC#CC(=O)N1CCC[C@H]1c1nc(-c2ccc(C(=O)Nc3cc(C)ccn3)cc2)c2c(C)nccn12 [Example 15, (S)-4-(3-(1-but-2-ynoylpyrrolidin-2-yl)-8-methylimidazo[1,5-a]pyrazin-1-yl)-N-(4-methylpyridin-2-yl)benzamide] | ≥ 1 | ≥ 100 | < 1000
C=CC(=O)N1CCC[C@H]1c1nc(-c2ccc(C(=O)Nc3cc(C(F)(F)F)ccn3)cc2)c2c(C)nccn12 [Example 10, (S)-4-(3-(1-Acryloylpyrrolidin-2-yl)-8-methylimidazo[1,5-a]pyrazin-1-yl)-N-(4-(trifluoromethyl)pyridin-2-yl)benzamide] | ≥ 1 | < 10 | –
CC#CC(=O)N[C@@H](C)c1nc(-c2ccc(C(=O)Nc3cc(CCC)ccn3)cc2)c2c(C)nccn12 [Example 38, (S)-4-(3-(1-but-2-ynamidoethyl)-8-methylimidazo[1,5-a]pyrazin-1-yl)-N-(4-propylpyridin-2-yl)benzamide] | ≥ 1 | < 10 | –
C=CC(=O)N[C@@H](C)c1nc(-c2ccc(C(=O)Nc3cc(C(F)(F)F)ccn3)cc2)c2c(C)nccn12 [Example 8, (S)-4-(3-(1-Acrylamidoethyl)-8-methylimidazo[1,5-a]pyrazin-1-yl)-N-(4-(trifluoromethyl)pyridin-2-yl)benzamide] | ≥ 1 | < 10 | –
CCCc1ccnc(NC(=O)c2ccc(-c3nc([C@@H]4CCCCN4C(=O)/C=C/CN(C)C)n4ccnc(C)c34)cc2)c1 [Example 3, (S,E)-4-(3-(1-(4-(Dimethylamino)but-2-enoyl)piperidin-2-yl)-8-methylimidazo[1,5-a]pyrazin-1-yl)-N-(4-propylpyridin-2-yl)benzamide] | ≥ 1 | < 10 | –
CC#CC(=O)N[C@@H](C)c1nc(-c2ccc(C(=O)Nc3cc(C(F)(F)F)ccn3)cc2)c2c(C)nccn12 [Example 7, (S)-4-(3-(1-But-2-ynamidoethyl)-8-methylimidazo[1,5-a]pyrazin-1-yl)-N-(4-(trifluoromethyl)pyridin-2-yl)benzamide] | ≥ 1 | < 10 | –
